Legend:
[1] = target: CaMK2b (Homo sapiens, UniProt Q13554); test: kinase panel profiling; type: biochemical; details: read-out: inhibition of CaMK2b
[2] = target: CaMK2d (Homo sapiens, UniProt Q13557); test: kinase panel profiling; type: biochemical; details: read-out: inhibition of CaMK2d
[3] = target: CDK7-CycH-Mat1 (Homo sapiens, UniProt P50613); test: kinase panel profiling; type: biochemical; details: read-out: inhibition of CDK7-CycH-Mat1
[4] = target: T1, cGK2 (Homo sapiens, UniProt Q13237); test: kinase panel profiling; type: biochemical; details: read-out: inhibition of cGK2
T1 sequence (Q13237 1-762): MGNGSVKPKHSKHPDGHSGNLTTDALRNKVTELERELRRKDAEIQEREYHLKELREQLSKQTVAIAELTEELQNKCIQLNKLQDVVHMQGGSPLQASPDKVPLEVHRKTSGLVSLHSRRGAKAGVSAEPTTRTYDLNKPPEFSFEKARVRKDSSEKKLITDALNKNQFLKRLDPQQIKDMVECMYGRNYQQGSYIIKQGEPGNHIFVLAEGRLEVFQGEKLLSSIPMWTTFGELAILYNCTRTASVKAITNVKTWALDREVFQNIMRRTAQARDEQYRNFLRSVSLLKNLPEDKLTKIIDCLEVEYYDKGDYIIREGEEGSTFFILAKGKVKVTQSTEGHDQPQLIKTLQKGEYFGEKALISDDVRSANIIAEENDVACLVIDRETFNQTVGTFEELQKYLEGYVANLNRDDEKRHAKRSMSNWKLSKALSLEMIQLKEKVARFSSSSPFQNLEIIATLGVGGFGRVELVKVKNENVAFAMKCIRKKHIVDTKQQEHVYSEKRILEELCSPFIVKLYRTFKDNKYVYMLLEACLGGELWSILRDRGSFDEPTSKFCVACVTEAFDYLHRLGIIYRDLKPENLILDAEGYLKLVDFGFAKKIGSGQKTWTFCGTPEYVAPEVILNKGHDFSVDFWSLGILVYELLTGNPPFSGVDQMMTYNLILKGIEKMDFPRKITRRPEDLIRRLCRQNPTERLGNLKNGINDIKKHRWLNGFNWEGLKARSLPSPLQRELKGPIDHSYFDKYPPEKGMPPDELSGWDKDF

[5] = target: CK1d (Homo sapiens, UniProt P48730); test: kinase panel profiling; type: biochemical; details: read-out: inhibition of CK1d
CK1d, sequence (P48730 whole entry): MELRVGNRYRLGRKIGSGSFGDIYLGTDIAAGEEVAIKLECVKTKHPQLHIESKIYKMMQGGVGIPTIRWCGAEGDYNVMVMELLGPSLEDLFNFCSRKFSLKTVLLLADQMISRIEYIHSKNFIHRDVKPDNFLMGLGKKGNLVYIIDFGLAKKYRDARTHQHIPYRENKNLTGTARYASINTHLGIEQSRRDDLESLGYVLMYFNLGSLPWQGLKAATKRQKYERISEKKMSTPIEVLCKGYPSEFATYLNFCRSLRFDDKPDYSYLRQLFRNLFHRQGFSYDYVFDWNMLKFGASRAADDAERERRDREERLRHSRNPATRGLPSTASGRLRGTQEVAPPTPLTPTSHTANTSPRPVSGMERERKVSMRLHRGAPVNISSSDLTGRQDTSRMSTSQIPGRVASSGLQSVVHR

[6] = target: CLK1 (Homo sapiens, UniProt P49759); test: kinase panel profiling; type: biochemical; details: read-out: inhibition of CLK1
[7] = target: CLK2 (Homo sapiens, UniProt P49760); test: kinase panel profiling; type: biochemical; details: read-out: inhibition of CLK2
CLK2, sequence (P49760 whole entry, species assumed): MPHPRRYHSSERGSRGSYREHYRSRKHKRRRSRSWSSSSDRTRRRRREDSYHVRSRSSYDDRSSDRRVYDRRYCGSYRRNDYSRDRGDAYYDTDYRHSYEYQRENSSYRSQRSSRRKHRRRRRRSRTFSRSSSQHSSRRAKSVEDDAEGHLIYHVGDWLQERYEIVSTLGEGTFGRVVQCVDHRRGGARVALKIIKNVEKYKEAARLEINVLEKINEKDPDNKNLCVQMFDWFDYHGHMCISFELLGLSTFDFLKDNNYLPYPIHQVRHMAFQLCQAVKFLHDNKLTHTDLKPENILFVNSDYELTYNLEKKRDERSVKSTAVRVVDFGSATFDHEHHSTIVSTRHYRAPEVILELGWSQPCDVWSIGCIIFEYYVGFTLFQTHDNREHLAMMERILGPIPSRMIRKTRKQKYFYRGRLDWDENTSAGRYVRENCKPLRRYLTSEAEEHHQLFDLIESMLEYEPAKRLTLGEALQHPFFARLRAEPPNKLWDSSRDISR

[8] = target: DYRK1A (Homo sapiens, UniProt Q13627); test: kinase panel profiling; type: biochemical; details: read-out: inhibition of DYRK1A
[9] = target: DYRK1B (Homo sapiens, UniProt Q9Y463); test: kinase panel profiling; type: biochemical; details: read-out: inhibition of DYRK1B
DYRK1B, sequence (Q9Y463 whole entry, species assumed): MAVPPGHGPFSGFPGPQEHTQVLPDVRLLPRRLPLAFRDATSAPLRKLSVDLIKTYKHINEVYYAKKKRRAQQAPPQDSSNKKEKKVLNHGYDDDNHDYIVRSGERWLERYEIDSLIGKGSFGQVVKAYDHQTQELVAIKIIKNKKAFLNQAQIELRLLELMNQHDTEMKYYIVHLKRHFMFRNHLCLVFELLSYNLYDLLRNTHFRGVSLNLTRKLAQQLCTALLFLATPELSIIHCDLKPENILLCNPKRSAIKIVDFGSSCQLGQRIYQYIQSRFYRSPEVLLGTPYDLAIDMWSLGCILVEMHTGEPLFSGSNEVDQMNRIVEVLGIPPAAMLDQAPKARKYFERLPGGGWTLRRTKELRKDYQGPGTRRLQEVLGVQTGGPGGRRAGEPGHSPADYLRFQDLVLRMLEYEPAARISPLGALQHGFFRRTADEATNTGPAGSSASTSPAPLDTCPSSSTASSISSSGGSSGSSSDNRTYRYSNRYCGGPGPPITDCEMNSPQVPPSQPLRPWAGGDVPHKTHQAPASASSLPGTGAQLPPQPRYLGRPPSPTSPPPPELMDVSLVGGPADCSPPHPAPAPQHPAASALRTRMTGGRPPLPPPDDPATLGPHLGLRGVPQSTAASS

[10] = target: T2, DYRK3 (Homo sapiens, UniProt O43781); test: kinase panel profiling; type: biochemical; details: read-out: inhibition of DYRK3
T2 sequence (O43781 1-588): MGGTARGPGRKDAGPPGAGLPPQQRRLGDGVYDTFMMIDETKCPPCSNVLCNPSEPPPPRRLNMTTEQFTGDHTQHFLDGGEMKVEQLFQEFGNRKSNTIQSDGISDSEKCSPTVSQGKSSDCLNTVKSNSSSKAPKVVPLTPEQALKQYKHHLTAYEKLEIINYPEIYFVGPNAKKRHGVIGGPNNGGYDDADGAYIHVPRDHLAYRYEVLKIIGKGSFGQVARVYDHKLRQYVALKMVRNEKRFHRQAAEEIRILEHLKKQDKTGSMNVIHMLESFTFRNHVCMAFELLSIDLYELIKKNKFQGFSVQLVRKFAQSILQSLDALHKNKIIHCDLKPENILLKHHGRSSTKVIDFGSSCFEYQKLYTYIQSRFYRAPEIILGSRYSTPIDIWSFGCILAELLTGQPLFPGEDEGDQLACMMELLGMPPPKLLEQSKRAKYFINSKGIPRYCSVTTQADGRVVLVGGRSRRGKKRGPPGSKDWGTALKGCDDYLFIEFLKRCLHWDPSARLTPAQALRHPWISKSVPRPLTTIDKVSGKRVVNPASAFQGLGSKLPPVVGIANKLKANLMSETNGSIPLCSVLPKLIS

[11] = target: PASK (Homo sapiens, UniProt Q96RG2); test: kinase panel profiling; type: biochemical; details: read-out: inhibition of PASK
PASK, sequence (Q96RG2 whole entry): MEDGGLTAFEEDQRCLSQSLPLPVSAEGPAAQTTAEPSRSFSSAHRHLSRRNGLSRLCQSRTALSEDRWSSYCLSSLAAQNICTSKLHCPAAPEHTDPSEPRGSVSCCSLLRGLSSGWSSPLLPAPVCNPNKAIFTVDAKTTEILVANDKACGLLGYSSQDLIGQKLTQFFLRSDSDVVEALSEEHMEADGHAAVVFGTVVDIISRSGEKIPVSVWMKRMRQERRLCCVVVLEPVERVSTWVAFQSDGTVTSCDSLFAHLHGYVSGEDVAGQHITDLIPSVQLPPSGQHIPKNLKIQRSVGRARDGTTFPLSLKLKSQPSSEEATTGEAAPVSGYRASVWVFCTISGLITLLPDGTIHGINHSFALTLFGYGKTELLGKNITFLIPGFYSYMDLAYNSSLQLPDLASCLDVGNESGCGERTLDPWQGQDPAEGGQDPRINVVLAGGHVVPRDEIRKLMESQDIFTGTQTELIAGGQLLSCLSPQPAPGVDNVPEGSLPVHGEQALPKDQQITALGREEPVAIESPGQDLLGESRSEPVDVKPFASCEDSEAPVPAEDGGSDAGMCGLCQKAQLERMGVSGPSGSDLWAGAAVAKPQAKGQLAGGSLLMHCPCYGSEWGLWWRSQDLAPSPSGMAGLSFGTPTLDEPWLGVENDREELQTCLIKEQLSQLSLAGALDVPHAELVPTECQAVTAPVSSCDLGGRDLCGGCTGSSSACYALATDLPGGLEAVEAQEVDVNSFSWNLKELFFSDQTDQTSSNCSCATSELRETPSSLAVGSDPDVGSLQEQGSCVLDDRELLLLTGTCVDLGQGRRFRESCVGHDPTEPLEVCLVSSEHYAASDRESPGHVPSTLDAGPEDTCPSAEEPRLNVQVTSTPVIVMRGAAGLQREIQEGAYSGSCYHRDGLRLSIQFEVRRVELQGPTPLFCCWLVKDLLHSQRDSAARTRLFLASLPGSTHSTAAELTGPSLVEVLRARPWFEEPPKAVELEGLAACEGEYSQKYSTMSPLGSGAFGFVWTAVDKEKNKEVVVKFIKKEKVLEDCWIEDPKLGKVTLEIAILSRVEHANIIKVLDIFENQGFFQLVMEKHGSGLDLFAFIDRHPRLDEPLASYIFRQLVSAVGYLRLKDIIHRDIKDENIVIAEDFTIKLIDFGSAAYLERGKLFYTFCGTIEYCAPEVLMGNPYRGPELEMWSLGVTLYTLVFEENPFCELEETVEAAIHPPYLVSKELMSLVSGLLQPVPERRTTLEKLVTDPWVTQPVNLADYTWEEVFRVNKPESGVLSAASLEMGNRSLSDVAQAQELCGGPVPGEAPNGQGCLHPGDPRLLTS

[12] = target: PIM1 (Homo sapiens, UniProt P11309); test: kinase panel profiling; type: biochemical; details: read-out: inhibition of PIM1
[13] = target: T3, PKD3 (Homo sapiens, UniProt O94806); test: kinase panel profiling; type: biochemical; details: read-out: inhibition of PKD3
T3 sequence (O94806 1-890): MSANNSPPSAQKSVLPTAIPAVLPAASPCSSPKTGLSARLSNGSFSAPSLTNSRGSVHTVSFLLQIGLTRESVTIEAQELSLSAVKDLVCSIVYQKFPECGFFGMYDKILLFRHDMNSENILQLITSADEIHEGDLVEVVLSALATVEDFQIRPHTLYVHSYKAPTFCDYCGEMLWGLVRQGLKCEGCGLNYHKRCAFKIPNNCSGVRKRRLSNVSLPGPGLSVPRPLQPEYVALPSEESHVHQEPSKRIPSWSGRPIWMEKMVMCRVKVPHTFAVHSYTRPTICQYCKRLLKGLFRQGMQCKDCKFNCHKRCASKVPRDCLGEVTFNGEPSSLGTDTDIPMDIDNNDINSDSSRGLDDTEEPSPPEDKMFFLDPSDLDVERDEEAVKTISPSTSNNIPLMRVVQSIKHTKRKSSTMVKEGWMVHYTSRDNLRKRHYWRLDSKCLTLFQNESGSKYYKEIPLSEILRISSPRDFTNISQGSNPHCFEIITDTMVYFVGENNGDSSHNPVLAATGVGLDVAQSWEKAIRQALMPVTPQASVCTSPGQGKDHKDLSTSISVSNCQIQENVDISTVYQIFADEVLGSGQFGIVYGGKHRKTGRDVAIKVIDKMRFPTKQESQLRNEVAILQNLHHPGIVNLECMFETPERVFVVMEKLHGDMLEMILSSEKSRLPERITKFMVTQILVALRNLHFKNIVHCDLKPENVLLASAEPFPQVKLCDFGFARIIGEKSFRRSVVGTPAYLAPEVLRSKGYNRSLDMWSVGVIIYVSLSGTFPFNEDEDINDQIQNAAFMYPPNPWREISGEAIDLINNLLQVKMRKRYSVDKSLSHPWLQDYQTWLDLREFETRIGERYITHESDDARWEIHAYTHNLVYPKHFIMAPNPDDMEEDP

[14] = target: T4, haspin (Homo sapiens, UniProt Q8TF76); test: biochemical; details: read-out: inhibition of haspin
T4 sequence (Q8TF76 1-798): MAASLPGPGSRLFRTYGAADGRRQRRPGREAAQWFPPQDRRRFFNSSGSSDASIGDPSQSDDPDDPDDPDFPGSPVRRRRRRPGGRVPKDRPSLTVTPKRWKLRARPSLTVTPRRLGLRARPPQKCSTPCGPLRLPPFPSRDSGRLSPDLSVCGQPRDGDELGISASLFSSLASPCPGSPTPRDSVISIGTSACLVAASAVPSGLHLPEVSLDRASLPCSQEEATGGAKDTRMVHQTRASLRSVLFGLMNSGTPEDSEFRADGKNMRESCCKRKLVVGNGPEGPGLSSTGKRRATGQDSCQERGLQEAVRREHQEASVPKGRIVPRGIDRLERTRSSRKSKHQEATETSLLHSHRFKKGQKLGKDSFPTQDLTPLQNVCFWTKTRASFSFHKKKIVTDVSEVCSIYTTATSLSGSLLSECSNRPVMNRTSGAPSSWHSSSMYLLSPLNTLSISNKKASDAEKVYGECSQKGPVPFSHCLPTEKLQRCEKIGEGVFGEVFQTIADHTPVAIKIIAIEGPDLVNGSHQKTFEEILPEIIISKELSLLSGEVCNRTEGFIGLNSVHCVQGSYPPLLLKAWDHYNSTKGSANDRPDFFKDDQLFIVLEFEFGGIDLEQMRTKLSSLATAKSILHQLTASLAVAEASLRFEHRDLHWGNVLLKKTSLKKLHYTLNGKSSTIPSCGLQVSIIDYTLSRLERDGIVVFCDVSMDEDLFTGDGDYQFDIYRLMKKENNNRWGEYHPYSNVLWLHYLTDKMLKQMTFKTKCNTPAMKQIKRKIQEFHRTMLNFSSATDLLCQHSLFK

[15] = target: T4, haspin; test: TR-FRET haspin kinase inhibition assay; type: biochemical
[16] = test system: mouse xenograft model; details: cited from earlier work

CaMK2d, sequence (Q13557 whole entry, species assumed): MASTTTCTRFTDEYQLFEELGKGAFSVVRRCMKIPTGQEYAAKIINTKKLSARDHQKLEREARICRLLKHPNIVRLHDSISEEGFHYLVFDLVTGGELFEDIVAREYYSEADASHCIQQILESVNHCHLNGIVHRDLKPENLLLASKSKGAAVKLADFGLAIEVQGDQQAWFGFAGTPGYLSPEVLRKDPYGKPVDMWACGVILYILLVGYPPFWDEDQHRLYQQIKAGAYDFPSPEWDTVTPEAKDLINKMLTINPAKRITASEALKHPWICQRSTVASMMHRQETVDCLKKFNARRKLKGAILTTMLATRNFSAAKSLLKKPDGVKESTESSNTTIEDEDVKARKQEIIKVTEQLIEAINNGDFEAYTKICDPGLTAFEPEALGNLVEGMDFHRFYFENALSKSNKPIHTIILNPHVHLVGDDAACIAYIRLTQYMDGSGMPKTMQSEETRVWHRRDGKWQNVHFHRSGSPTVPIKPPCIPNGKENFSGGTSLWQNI
CDK7-CycH-Mat1, sequence (P50613 whole entry): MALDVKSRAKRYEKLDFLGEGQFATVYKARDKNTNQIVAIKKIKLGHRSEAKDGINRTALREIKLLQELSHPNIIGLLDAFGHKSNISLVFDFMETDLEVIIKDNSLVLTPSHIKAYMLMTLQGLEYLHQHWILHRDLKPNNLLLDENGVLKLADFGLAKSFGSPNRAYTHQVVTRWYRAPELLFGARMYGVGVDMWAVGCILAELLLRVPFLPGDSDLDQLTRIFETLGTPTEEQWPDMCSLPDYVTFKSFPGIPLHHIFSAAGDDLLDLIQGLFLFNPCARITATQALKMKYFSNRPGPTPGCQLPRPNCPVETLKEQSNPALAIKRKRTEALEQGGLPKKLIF
CDK7-CycH-Mat1, sequence (P51946 whole entry partner): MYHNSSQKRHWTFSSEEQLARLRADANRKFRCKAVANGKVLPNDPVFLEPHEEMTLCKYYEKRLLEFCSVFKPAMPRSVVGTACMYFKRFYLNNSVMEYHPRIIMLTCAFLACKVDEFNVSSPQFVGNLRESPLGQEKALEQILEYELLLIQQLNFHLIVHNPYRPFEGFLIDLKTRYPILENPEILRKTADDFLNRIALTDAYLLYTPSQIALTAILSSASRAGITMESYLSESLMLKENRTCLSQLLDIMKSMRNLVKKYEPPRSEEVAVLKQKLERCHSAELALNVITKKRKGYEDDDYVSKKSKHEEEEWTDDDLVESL
CDK7-CycH-Mat1, sequence (P51948 whole entry partner): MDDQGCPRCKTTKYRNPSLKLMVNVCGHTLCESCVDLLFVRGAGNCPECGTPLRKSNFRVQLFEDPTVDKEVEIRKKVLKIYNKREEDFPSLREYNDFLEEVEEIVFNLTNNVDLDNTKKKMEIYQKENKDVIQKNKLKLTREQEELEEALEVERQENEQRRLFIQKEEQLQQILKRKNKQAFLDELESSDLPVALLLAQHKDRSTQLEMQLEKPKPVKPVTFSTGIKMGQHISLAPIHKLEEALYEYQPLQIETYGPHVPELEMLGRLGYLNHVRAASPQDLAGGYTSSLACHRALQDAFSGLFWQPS
CaMK2b, sequence (Q13554 whole entry, species assumed): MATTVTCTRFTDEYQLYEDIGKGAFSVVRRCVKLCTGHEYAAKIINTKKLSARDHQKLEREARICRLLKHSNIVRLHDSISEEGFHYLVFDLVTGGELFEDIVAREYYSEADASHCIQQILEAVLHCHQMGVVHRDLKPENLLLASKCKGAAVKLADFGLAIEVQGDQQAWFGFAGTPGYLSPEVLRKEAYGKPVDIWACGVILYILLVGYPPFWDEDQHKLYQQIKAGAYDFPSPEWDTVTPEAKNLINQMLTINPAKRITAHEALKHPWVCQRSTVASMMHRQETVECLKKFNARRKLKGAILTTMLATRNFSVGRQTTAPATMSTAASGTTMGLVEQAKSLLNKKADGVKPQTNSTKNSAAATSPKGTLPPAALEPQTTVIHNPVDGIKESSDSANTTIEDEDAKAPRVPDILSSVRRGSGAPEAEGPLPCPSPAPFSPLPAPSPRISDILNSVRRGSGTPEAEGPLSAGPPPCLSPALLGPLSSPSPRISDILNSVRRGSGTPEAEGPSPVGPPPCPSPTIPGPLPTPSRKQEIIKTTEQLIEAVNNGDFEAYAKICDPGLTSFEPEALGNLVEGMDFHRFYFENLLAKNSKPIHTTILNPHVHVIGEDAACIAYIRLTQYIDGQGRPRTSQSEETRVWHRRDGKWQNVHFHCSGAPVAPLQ

COc1ccc2c3ccnc(C(F)(F)F)c3n(CCCCN)c2c1 [compound 42]
≥ 90%: inhibition at 10 µM [1] | inhibition at 10 µM [2] | inhibition at 10 µM [3] | inhibition at 10 µM [4] | inhibition at 10 µM [5] | inhibition at 10 µM [6] | inhibition at 10 µM [7] | inhibition at 10 µM [8] | inhibition at 10 µM [9] | inhibition at 10 µM [10] | inhibition at 10 µM [11] | inhibition at 10 µM [12] | inhibition at 10 µM [13] | inhibition at 10 µM [14]

Cc1nccc2c1[nH]c1cc(OCCCN)ccc12 [7a]
inactive: haspin inhibition at 10 µM [15]

Cc1nccc2c1[nH]c1cc(OCCCCN)ccc12 [7b]
inactive: haspin inhibition at 10 µM [15]

CCCNc1ccc2ncc(-c3ccc4[nH]ncc4c3)n2n1 [CHR-6494]
displayed anti-tumor activity: anti-tumor activity [16]

From paper PMC3288743 (Bioorganic & medicinal chemistry letters, 2012)
